Reference: ChEMBL document CHEMBL5465560, “Selectivity Literature for EUbOPEN Chemogenomic Library” (2024)
One block for each compound: values may come before it.

Tests used:
[1] = biological target: MAP kinase-interacting serine/threonine-protein kinase 2 (Homo sapiens, UniProt Q9HBH9); assay: Selectivity interaction (KinomeScan (DiscoverX)) EUB0000607a MKNK2; details: at 10 µM
[2] = biological target: T1, Tyrosine-protein kinase ZAP-70 (Homo sapiens) (UniProt P43403); details: at 10 µM
T1 sequence (whole entry): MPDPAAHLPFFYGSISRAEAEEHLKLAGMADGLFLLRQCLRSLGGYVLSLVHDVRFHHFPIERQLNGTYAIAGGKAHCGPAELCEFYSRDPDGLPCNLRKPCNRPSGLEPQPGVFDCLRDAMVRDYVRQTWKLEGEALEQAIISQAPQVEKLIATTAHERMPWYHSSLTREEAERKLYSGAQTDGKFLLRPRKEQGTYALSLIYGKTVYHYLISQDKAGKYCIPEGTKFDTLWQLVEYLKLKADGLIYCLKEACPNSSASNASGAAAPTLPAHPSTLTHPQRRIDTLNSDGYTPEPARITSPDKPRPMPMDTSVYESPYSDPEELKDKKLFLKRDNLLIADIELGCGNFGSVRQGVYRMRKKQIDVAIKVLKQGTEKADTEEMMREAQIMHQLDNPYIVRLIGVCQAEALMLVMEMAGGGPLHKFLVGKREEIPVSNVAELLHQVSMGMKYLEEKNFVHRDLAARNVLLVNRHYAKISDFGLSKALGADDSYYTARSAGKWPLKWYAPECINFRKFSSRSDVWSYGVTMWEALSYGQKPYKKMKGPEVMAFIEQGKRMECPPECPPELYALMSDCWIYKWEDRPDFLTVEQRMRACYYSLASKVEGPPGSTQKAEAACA

[3] = biological target: T2, Ephrin type-B receptor 3 (Homo sapiens) (UniProt P54753); assay: Selectivity interaction (Kinase panel (Invitrogen)) EUB0000639a EPHB3; details: at 200 nM
T2 sequence (whole entry): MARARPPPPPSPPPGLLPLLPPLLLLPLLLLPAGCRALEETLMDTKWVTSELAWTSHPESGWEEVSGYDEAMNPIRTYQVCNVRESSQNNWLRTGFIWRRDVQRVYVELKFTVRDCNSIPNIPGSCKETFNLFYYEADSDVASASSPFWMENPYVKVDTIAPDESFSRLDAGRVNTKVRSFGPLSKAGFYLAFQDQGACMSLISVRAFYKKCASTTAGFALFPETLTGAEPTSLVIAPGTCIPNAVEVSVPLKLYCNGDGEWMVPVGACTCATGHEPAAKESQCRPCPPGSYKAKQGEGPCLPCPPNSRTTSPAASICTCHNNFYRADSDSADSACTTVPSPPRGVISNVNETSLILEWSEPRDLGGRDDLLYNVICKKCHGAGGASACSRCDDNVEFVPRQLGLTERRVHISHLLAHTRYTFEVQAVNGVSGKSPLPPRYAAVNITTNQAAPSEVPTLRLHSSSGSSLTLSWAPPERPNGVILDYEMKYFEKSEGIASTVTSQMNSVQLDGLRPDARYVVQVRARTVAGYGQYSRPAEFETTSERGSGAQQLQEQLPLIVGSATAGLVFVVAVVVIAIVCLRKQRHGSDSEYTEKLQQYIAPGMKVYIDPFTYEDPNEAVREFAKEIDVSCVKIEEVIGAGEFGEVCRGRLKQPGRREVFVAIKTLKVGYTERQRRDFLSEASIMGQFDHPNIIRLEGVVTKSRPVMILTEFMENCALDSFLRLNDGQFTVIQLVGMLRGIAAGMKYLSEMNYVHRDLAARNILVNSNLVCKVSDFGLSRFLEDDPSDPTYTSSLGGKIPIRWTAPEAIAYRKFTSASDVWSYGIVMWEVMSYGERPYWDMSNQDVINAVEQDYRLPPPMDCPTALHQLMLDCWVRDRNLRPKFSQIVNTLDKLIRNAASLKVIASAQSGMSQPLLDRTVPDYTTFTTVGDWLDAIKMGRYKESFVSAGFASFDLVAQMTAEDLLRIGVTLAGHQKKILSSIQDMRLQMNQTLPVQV

[4] = biological target: Serine/threonine-protein kinase N1 (Homo sapiens, UniProt Q16512); assay: Selectivity interaction (ProQinase) EUB0000171b PKN1
Sequence of Serine/threonine-protein kinase N1 (Q16512 2-942 limits assumed): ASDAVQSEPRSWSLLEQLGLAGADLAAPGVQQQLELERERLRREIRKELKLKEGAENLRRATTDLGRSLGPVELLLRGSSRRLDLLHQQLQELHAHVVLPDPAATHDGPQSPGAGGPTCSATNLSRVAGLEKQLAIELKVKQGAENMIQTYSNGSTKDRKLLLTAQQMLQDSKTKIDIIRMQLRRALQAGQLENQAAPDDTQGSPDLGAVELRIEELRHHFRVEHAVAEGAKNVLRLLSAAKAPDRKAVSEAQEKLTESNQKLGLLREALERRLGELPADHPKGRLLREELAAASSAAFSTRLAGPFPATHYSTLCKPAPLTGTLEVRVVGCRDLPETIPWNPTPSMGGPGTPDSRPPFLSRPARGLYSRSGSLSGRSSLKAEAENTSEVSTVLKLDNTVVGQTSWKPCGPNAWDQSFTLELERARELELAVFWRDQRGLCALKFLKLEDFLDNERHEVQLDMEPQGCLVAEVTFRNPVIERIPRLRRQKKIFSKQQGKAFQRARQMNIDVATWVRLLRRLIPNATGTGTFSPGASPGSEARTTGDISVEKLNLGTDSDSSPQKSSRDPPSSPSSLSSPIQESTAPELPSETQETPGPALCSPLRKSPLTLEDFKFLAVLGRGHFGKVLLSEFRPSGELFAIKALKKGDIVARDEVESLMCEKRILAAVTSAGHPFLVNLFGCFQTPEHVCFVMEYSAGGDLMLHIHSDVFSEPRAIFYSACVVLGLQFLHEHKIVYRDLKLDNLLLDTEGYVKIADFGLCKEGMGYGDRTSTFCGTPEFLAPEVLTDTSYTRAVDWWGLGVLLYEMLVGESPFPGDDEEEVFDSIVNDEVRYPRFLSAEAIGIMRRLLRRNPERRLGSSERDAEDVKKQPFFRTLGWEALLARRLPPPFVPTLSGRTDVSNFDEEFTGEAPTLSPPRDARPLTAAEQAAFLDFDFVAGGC

[5] = biological target: T3, Cyclin-dependent kinase-like 5 (Homo sapiens) (UniProt O76039); assay: Selectivity interaction (KinomeScan (DiscoverX)) EUB0000092b CDKL5; details: at 10 µM
T3 sequence (whole entry): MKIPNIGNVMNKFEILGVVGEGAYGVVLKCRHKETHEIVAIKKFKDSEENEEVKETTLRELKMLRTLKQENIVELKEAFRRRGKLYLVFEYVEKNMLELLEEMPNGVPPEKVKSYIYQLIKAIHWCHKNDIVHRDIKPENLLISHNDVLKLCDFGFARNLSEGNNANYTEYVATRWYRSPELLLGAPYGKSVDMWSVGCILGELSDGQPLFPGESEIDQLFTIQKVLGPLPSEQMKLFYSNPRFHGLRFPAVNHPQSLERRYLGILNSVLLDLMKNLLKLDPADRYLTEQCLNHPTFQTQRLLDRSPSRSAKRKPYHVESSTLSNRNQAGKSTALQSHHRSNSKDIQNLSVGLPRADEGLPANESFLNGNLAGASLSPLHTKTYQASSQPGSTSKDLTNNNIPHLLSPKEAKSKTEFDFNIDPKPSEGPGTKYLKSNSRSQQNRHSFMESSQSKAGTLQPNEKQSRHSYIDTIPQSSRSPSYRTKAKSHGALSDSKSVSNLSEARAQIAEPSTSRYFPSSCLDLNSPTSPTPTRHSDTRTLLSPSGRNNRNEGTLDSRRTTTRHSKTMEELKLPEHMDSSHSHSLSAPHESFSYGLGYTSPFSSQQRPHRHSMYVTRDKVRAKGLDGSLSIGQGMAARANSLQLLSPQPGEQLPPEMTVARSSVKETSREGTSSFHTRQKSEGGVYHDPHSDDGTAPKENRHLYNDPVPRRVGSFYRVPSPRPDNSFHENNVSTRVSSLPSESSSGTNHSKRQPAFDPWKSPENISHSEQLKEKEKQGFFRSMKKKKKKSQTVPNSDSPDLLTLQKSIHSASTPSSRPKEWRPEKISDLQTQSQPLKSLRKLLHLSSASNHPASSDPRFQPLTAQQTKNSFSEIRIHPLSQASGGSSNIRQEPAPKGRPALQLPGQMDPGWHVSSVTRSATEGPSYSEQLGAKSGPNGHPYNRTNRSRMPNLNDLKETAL

[6] = biological target: Tyrosine-protein kinase Yes (Homo sapiens) (UniProt P07947); details: at 10 µM
Sequence of Tyrosine-protein kinase Yes (Homo sapiens) (P07947 2-543 limits assumed): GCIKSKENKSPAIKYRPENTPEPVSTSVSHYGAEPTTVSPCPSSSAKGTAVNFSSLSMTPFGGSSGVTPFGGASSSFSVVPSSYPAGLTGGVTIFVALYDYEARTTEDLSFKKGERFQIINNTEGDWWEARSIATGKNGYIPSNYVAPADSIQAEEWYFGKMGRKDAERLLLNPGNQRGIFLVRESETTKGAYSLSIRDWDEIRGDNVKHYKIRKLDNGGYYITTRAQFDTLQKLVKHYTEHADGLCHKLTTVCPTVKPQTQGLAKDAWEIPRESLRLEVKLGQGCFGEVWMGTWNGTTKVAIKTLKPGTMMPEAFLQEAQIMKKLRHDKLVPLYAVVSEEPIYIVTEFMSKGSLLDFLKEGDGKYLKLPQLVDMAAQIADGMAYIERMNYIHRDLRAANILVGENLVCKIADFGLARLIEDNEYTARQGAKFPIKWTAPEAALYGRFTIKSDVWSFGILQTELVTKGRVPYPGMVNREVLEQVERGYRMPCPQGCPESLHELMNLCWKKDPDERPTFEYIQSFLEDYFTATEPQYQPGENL

[7] = biological target: Ribosomal protein S6 kinase alpha-4 (Homo sapiens) (UniProt O75676); assay: Selectivity interaction (KinomeScan (DiscoverX)) EUB0001619a RPS6KA4; details: at 1 µM
Sequence of Ribosomal protein S6 kinase alpha-4 (Homo sapiens) (O75676 whole entry, looked up): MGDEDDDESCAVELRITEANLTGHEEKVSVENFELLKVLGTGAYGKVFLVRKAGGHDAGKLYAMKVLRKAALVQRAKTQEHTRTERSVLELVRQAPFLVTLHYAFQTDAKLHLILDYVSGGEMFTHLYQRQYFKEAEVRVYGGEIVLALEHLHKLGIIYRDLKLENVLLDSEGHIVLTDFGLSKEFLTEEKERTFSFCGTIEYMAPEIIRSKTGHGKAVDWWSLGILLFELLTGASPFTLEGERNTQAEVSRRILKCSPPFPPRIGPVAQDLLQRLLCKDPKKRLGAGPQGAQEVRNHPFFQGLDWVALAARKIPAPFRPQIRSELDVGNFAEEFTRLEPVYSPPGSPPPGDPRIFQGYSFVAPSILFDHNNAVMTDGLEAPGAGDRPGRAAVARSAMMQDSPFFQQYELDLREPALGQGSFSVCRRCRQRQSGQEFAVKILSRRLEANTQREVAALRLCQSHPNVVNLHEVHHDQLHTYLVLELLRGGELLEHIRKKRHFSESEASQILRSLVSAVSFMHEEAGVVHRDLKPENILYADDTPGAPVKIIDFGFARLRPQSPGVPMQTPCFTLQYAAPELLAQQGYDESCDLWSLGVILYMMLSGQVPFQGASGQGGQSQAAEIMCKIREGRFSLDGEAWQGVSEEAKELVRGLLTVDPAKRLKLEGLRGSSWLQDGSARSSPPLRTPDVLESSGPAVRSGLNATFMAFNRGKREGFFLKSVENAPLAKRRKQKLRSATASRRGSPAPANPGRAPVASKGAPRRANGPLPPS

Sequence of MAP kinase-interacting serine/threonine-protein kinase 2 (Q9HBH9 whole entry, looked up): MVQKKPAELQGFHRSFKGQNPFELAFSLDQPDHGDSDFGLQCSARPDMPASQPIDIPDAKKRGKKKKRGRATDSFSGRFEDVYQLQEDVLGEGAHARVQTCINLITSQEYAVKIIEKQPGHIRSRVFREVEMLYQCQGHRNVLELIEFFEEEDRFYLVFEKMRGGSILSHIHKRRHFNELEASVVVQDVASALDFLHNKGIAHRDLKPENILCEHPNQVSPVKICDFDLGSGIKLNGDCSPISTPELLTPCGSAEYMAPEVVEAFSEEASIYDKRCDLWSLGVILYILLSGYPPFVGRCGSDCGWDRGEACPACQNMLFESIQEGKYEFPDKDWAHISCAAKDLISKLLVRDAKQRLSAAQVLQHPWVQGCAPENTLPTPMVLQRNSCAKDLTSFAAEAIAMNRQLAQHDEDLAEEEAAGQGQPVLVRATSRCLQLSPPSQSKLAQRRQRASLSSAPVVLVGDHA

Compound: CNC(=O)Nc1ccc(-c2nc(N3CC4CCC(C3)O4)c3cnn(C4CCC5(CC4)OCCO5)c3n2)cc1
% of control [1]: 87%

% of control [2]: 100%
Compound: CCN(CC)CCCCNc1ncc2cc(-c3cc(OC)cc(OC)c3)c(NC(=O)NC(C)(C)C)nc2n1

% of inhibition [3]: 4.83%
Compound: CC[C@@H]1[C@H](F)C(=O)N[C@@H]1COc1nccc2cc(C(N)=O)c(OC)cc12 [ZIMLOVISERTIB]

% of control ([4]; at 1 µM): 100%
% of control ([4]; at 5 µM): 91%
Compound: C=CC(=O)Nc1cccc(C(=O)Nc2ccc(Nc3cc(-c4[nH]c(SC)nc4C)ccn3)cc2)c1

Compound: CCC(=O)N1CCN(c2ccc(-n3c(=O)ccc4cnc5ccc(-c6cnc7ccccc7c6)cc5c43)cc2C(F)(F)F)CC1
% of control [5]: 100%

Compound: Cc1cc([C@@H](C)Nc2ccccc2C(=O)O)c2nc(N3CCOCC3)cc(=O)n2c1 [AZD-6482]
% of control [6]: 100%

Compound: N#Cc1cccc(-c2c[nH]c3ncnc(N4CCOCC4)c23)c1
% of control [7]: 100%
